IC50 data for seven compounds are collected here from patent US12466840B2, “Small molecule inhibitors of KRAS proteins” (Merck Sharp & Dohme LLC, priority 2023, dated 2025).

Assay [1] addresses KRAS G12S (Homo sapiens (Human), UniProt P01116, G12S). Kind of assay: SOS-catalyzed nucleotide exchange assay (GNE), KRAS G12S. The conditions noted are these: TR-FRET, 60 min preincubation. Type of assay: biochemical. The text has this:
Procedure for SOS-Catalyzed Nucleotide Exchange Assay for KRAS-WT, G12C/D/V/A/R/S, G13D, Q61H, HRAS-WT, and NRAS-WT
Recombinant KRAS-G12C protein used in this assay has an additional triple mutation (C51S/C80L/C118S). Whereas KRAS-WT, G12D/V/A/S/R, G13D, Q61H, HRAS and NRAS are in context of their WT protein sequence background. Specifically, the SOS-catalyzed nucleotide exchange assay utilizes a preformed TR-FRET complex containing a specific biotinylated RAS protein (KRAS-WT, G12C/V/D/A/S/R, G13D, Q61H, HRAS-WT, NRAS-WT; described above) with Bodipy-GDP, and Terbium-streptavidin. Compounds are preincubated with this complex for 60 minutes. Subsequently, recombinant human SOS protein and unlabeled GTP are added to initiate the exchange reaction. Small molecule inhibitors stabilize the Bodipy-GDP complex whereas the untreated protein rapidly exchanges Bodipy-GDP for unlabeled GTP resulting in reduced TR-FRET signal.
To assemble the preformed TR-FRET complexes, each biotinylated RAS protein is diluted to 2 μM in an EDTA Buffer (20 mM HEPES pH 7.5, 50 mM sodium chloride, 10 mM EDTA, and 0.01% Tween) and incubated at room temperature for one hour. This mixture is then further diluted to 90 nM in an Assay Buffer (20 mM HEPES pH 7.5, 150 mM sodium chloride, 10 mM magnesium chloride, and 0.005% Tween) containing 15 nM of Terbium-Streptavidin (Invitrogen, catalog #PV3577) and 900 nM of Bodipy-GDP (Invitrogen, catalog #G22360) and incubated at room temperature for six hours. It should be noted that this preformed TR-FRET complex for each of the RAS protein were made ahead of time, aliquoted and stored at −80° C. until the day of the experiment.
Each test compound (10 mM stock in DMSO) is diluted in DMSO to make a final-10-point, 3-fold dilution and is acoustically dispensed into a 384-well assay plate (Corning, catalog #3820) using an Echo 550 (Labcyte). Each well of the assay plate receives 3 μL of a specific 3×RAS preformed TR-FRET complex and 3 μL of Assay Buffer and is incubated at room temperature for 60 minutes (preincubation time). Each well then receives 3 μL of 3× recombinant human SOS protein and GTP (Sigma, G8877) in Assay Buffer and is incubated at room temperature for 30 minutes (G13D), 60 minutes (KRAS WT/G12C/D, H/NRAS) or 90 minutes for G12A/R/S/V and Q61H. The final reaction in each well of 9 μL consists of 3 mM GTP, specific Ras and SOS proteins in the following concentrations: KRAS-G12C/SOS=3 nM/40 nM, KRAS-WT and G12D/SOS=1 nM/40 nM, KRAS-G12V/SOS=1.25 nM/160 nM, KRAS-G12A/S/SOS=1 nM/160 nM, KRAS-G12R/SOS=1 nM/320 nM, KRAS-Q61H/SOS=1 nM/320 nM, KRAS-G13D/SOS=1.25 nM/[…], HRAS-WT and NRAS-WT=1.25 nM/40 nM.
The time-resolved fluorescence resonance energy transfer (TR-FRET) signal is measured on an Envision (PerkinElmer) plate reader: Excitation filter=340 nm; emission1=495 nm; emission2=520 nm; dichroic mirror=D400/D505; delay time=[…]. The signal of each well is determined as the ratio of the emission at 520 nm to that at 495 nm. Percent effect of each well is determined after normalization to control wells containing DMSO (no effect) or a saturating concentration of inhibitor (max effect). The apparent effect as a function of compound concentration is fit to a four-parameter logistic equation.
On the technique in general: Time-resolved FRET reads energy transfer from a long-lived donor to a nearby acceptor.

Assay [2] deals with AsPC-1 cells (homozygous KRAS-G12D). Kind of assay: Cellular phospho-ERK assay, AsPC-1 cells. Type of assay: cell-based. Conditions: p-ERK vs. total ERK, read-out: AsPC1 pERK IC50. As for the experimental part:
(§1) Procedure for Cellular Phospho-ERK Assay in KRAS Wild Type and Mutant (G12D, G12V) Cell Lines
(§2) MKN-1 cells (JCRB JCRB0252) containing amplified wild-type KRAS, were cultured in growth medium that contains RPMI 1640-GlutaMAX™-I (ThermoFisher Scientific 61870) containing 10% heat inactivated fetal bovine serum (ThermoFisher Scientific 10091148), 1 mM sodium pyruvate and 10 mM HEPES. AsPC-1 cells (ATCC® CRL-1682™), containing homozygous KRAS-G12D activating mutation, were cultured in T150 flask in growth medium (RPMI medium 1640-GlutaMAX™-I (ThermoFisher Scientific 61870) containing 10% fetal bovine serum (ThermoFisher Scientific 10091148)). SW620 cells (ATCC® CRL-227™) containing homozygous KRAS-G12V activating mutation, were cultured in growth medium that contains RPMI 1640-GlutaMAX™-I (ThermoFisher Scientific 61870) containing 10% heat inactivated fetal bovine serum (ThermoFisher Scientific 10091148).
(§3) Cells for the assay were harvested in growth medium after TrypLE (ThermoFisher scientific 12604021) digestion and were seeded in a 384-well collagen coated cell culture plate (Corning 356702) at a density of 10,000-15,000 cells/[…]/well, and incubated at 37° C., 5% CO2 overnight. The compound (with 10 mM stock concentration) dose-response titrations were prepared [30 μM final ERK detection assay concentration and 1:3 dilutions, 10-point dose response] and appropriate amounts (270 nL) of test compounds were dispensed in a 384-well intermediate plate using an Echo 550 liquid handler. 30 μL/well of RPMI medium 1640-GlutaMAX™-I was added to the intermediate plate and the contents of the intermediate plate (10 μL/well) were then transferred to the 384-well collagen coated cell culture plate, which was incubated at 37° C., 5% CO2 for 2 h. After removal of medium from the collagen coated cell culture plate, cells were lysed in lysis buffer from Alpha SureFire® Ultra™ Multiplex p-ERK and total ERK assay kit (PerkinElmer MPSU-PTERK) containing Halt™ Protease and Phosphatase inhibitor cocktail (ThermoFisher Scientific 78446) at room temperature with constant shaking at 300 rpm for 30 minutes. The cell lysates were then transferred to an OptiPlate-384 plate (PerkinElmer 6005620), and the phosphorylation of ERK (p-ERK) and total ERK levels were detected by Alpha SureFire® Ultra™ Multiplex p-EEK kit and total ERK assay kit (PerkinElmer MPSU-PTERK) following the manufacturer's protocol. Assay plates were read on a EnVision Multimode Plate Reader (PerkinElmer), and the ratio of p-ERK vs. total ERK in each well was used as the final readout. Dose response curves were analyzed using a 4-parameter logistic model to calculate IC50 values using Spotfire software.

Assay [3] relates to MKN-1 cells (amplified wild-type KRAS). Kind of assay: Cellular phospho-ERK assay, MKN-1 cells. The format is cell-based. Conditions: 2 h, p-ERK vs. total ERK, read-out: MKN1 pERK IC50. As for the experimental part: as §1, §2, §3

Read-outs that look alike come from different tables or passages of the source. Where only a bound is given, the exact number is not on record here.

Chain of KRAS G12S (P01116 other isoform, or with tags, fused parts or gaps G12S (already in the parent)): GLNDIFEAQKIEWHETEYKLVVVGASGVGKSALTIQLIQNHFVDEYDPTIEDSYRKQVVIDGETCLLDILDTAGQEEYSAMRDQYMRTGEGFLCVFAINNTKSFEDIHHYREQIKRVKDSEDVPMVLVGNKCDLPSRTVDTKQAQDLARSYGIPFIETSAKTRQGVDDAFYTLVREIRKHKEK

As for `F/C=C1/CN2CCC[C@@]2(COc2nc3c4c(nc(-c5c(C6CC6)c(Cl)cc6[nH]ncc56)c(F)c4n2)OC[C@@H]2COCCCN32)C1` [Ex-1, (8aS)-5-(6-chloro-5-cyclopropyl-1H-indazol-4-yl)-4-fluoro-2-(((S,Z)-2-(fluoromethylene)tetrahydro-1H-pyrrolizin-7a(5H)-yl)methoxy)-8a,9,12,13-tetrahydro-8H,11H-7,10-dioxa-1,3,6,13a-tetraazanaphtho[1,8-ab]heptalene], the values for the IC50 in assay [1], in assay [2] (2 h) and in assay [3] were < 0.69 nM, 5.1 nM and 9.1 nM, respectively.
The matching figures for `CCc1c(F)ccc2cc3[nH]ncc3c(-c3nc4c5c(nc(OC[C@@]67CCCN6C[C@H](F)C7)nc5c3F)N3CCCOC[C@H]3CO4)c12` [Ex-2, (8aS)-5-(5-ethyl-6-fluoro-1H-benzo[f]indazol-4-yl)-4-fluoro-2-(((2R,7aS)-2-fluorotetrahydro-1H-pyrrolizin-7a(5H)-yl)methoxy)-8a,9,12,13-tetrahydro-8H,11H-7,10-dioxa-1,3,6,13a-tetraazanaphtho[1,8-ab]heptalene]: < 0.69 nM, 7.4 nM and 7.9 nM.
As to `Fc1c(-c2c(C3CC3)c(Cl)cc3[nH]ncc23)nc2c3c(nc(OC[C@@]45CCCN4C[C@H](F)C5)nc13)N1CCCOC[C@H]1CO2` [Ex-3, (8aS)-5-(6-chloro-5-cyclopropyl-1H-indazol-4-yl)-4-fluoro-2-(((2R,7aS)-2-fluorotetrahydro-1H-pyrrolizin-7a(5H)-yl)methoxy)-8a,9,12,13-tetrahydro-8H,11H-7,10-dioxa-1,3,6,13a-tetraazanaphtho[1,8-ab]heptalene], the IC50 in assay [2] (Homo sapiens, ASPC1, 2 h) stood at 15 nM; in assay [3] (Homo sapiens) it was 9.7 nM.
As to `CCc1c(F)ccc2cc3[nH]ncc3c(-c3nc4c5c(nc(OC[C@@]67CCCN6C/C(=C\F)C7)nc5c3F)N3CCCOC[C@H]3CO4)c12` [Ex-4, (8aS)-5-(5-ethyl-6-fluoro-1H-benzo[f]indazol-4-yl)-4-fluoro-2-(((S,Z)-2-(fluoromethylene)tetrahydro-1H-pyrrolizin-7a(5H)-yl)methoxy)-8a,9,12,13-tetrahydro-8H,11H-7,10-dioxa-1,3,6,13a-tetraazanaphtho[1,8-ab]heptalene], the IC50 in assay [1] is < 0.69 nM; in assay [2] (Homo sapiens, ASPC1, 2 h) it was 2.2 nM; in assay [3] (Homo sapiens), 6.6 nM.
The corresponding values for `F/C=C1\CN2CCC[C@@]2(COc2nc3c4c(nc(-c5c(C6(F)CC6)c(Cl)cc6[nH]ncc56)c(F)c4n2)OC[C@@H]2COCCCN32)C1` [Ex-5, (8aS)-5-(6-chloro-5-(1-fluorocyclopropyl)-1H-indazol-4-yl)-4-fluoro-2-(((S,Z)-2-(fluoromethylene)tetrahydro-1H-pyrrolizin-7a(5H)-yl)methoxy)-8a,9,12,13-tetrahydro-8H,11H-7,10-dioxa-1,3,6,13a-tetraazanaphtho[1,8-ab]heptalene] are 0.77 nM, 3.2 nM and 4.3 nM.
The matching figures for `CCc1c(F)ccc2cc3[nH]nc(C)c3c(-c3nc4c5c(nc(OC[C@@]67CCCN6C[C@H](F)C7)nc5c3F)N3CCCOC[C@H]3CO4)c12` [Ex-6, (8aS)-5-(5-ethyl-6-fluoro-3-methyl-1H-benzo[f]indazol-4-yl)-4-fluoro-2-(((2R,7aS)-2-fluorotetrahydro-1H-pyrrolizin-7a(5H)-yl)methoxy)-8a,9,12,13-tetrahydro-8H,11H-7,10-dioxa-1,3,6,13a-tetraazanaphtho[1,8-ab]heptalene]: 1.2 nM, 9.5 nM and 14 nM.
As for `CCc1c(F)ccc2cc3[nH]nc(C)c3c(-c3nc4c5c(nc(OC[C@@]67CCCN6C/C(=C\F)C7)nc5c3F)N3CCCOC[C@H]3CO4)c12` [Ex-7, (8aS)-5-(5-ethyl-6-fluoro-3-methyl-1H-benzo[f]indazol-4-yl)-4-fluoro-2-(((S,Z)-2-(fluoromethylene)tetrahydro-1H-pyrrolizin-7a(5H)-yl)methoxy)-8a,9,12,13-tetrahydro-8H,11H-7,10-dioxa-1,3,6,13a-tetraazanaphtho[1,8-ab]heptalene], the figures for the IC50 in assay [1], in assay [2] (2 h) and in assay [3] were 1.3 nM, 7.1 nM and 12 nM, respectively.

One may read the IC50 as the point on the concentration scale where inhibition reaches its midpoint.
